Measurements taken from ChEMBL document CHEMBL3507680, “University of Dundee, Gates Library screen for HepG2 cell viability”.

test: Human HepG2 cell viability assay in 384 well format; type: toxicity, cell-based; parameters: dose 125 nL, time 70.5 hour; concentration not given beside the values; conditions: HepG2 cells, read-out: Inhibition

| SMILES | cytotoxicity at 70.5 h |
| --- | --- |
| CCC(CNC(=O)Cn1ccnc1)Oc1cccc(F)c1 (configuration not stated) | 21.1% |
| NC(=O)C(NCc1cccs1)c1ccccc1 (configuration not stated) | -9.69% |
| O=C(NCc1cccnc1OCC(F)(F)F)N1CCOCC1 | 7.44% |
| COc1ncccc1CNC(=O)N1CCC(CN2CCOCC2)CC1 | 13.3% |
| CC(C)Oc1ncccc1CNC(=O)N1CCOCC1 | -14.9% |
| Cc1occc1C(=O)NCC(=O)N(C)CCCOc1ccc(F)cc1 | -6.91% |
| Cc1cc(C)c(CNC(=O)NCCc2cccnc2)c(=O)[nH]1 | -10.1% |
| CCCC(C#N)NC(=O)CCCOc1cccc(F)c1 (configuration not stated) | -9.46% |
| c1ccc2sc(N3CCCC(Cn4cncn4)C3)nc2c1 (configuration not stated) | -6.17% |
| Cn1cccc(NC(=O)NCCc2cccc(O)c2)c1=O | 9.38% |
| Cn1cccc(NC(=O)NCc2cccc(CO)c2)c1=O | 7.6% |
| O=C(NCCc1nnc[nH]1)Nc1cccc(SC(F)F)c1 | -9.47% |
| CCS(=O)(=O)N1CCc2c(cccc2NCc2nc(C)c(C)o2)C1 | 19.1% |
| CCC(CNC(=O)c1ccc(C(N)=O)cc1)Oc1cccc(F)c1 (configuration not stated) | -1.85% |
| Cc1nc(CC2CCCN(Cc3nc4ccccc4c(=O)[nH]3)C2)no1 (configuration not stated) | -7.59% |
| CCC(O)CN(c1ccccc1)S(=O)(=O)c1cnc(C)s1 (configuration not stated) | 18.5% |
| CCc1cnc(CNc2cccc3c2CCN(S(=O)(=O)CC)C3)o1 | -2.87% |
| CCN(CC)C(=O)N1CCN(CCc2ccncc2)CC1 | -7.09% |
| CC(=O)c1cccc(OCCCC(=O)NC(C#N)CC(C)C)c1 (configuration not stated) | -9.77% |
| CCn1cc(CN2CCCN(C(=O)C3(C)CCOCC3)CC2)cn1 | -10.2% |
| Cc1occc1C(=O)NCC(=O)N(C)CCCOc1ccccc1 | -1.18% |
| CCCN(CC1COc2ccccc2O1)C(=O)c1ncoc1CC (configuration not stated) | -7.46% |
| O=C(NCc1nc(C2CC2)no1)N1CCOC(c2ccccc2)C1 (configuration not stated) | -13.1% |
| CCN(CC)CC(=O)N1CCN(CCCc2ccncc2)CC1 | -0.476% |
| NC(=O)N1CCCC(C(=O)NCCOc2ccc3c(c2)OCO3)C1 (configuration not stated) | 2.99% |

| SMILES | cytotoxicity at 70.5 h |
| --- | --- |
| COC(=O)c1cccc(S(=O)(=O)Nc2ccc(F)c(C(N)=O)c2)c1 | 14.1% |
| CC(NC(=O)Nc1cccnc1N1CCCC1)c1ccccn1 (configuration not stated) | -17.8% |
| NC(=O)CC1CCN(c2ncnc3cccc(F)c23)CC1 | -3.61% |
| CSCc1ccc(CNCCN2CCOCC2)o1 | -12.8% |
| Cc1oc(C)c(C(=O)NS(=O)(=O)c2ccc3c(c2)OCCCO3)c1C | -27.5% |
| Cc1noc(C(C)N2CCN(CCc3ccncc3)CC2)n1 (configuration not stated) | -4.19% |
| CC(NC(=O)Nc1cccnc1N1CCOCC1)c1ccccc1 (configuration not stated) | -8.45% |
| N#CC1(NC(=O)c2nccc3ccccc23)CCC2(CC1)OCCO2 | -25.4% |
| Cc1noc(C)c1CN1CCC(NC(=O)OC(C)(C)C)CC1 | -0.745% |
| Cc1cc(Cn2cc(C#N)c(=O)c3ccccc32)no1 | -5.19% |
| Cc1cc(Cn2cc(C#N)c(=O)c3ccccc32)on1 | 8.12% |
| COC(=O)C1CCN(C(=O)NCC(C)Cc2cccs2)CC1 (configuration not stated) | -14.5% |
| CCOCCN1CCN(C(C)C(=O)Nc2ccnn2C(C)C)CC1 (configuration not stated) | -3.46% |
| CC(NCc1ccco1)c1nnc2n1CCCC2 (configuration not stated) | -5.13% |
| CCN(CC)C(=O)CCNC(=O)N(C)Cc1ccc(SC)c(OC)c1 | -11.2% |
| CCCn1nc2c(cc1=O)CN(Cc1ccccn1)CC2 | 0.0556% |
| NCC1(c2cccc(C(F)(F)F)c2)CC1 | 13.4% |
| CC(=O)c1cccc(NC(=O)CN2CCCC(C3OCCO3)C2)c1 (configuration not stated) | -7.07% |
| CC(=O)c1cccc(NC(=O)CN2CCCCC2C)c1 (configuration not stated) | -2.56% |
| CCOc1cc(/C=C/c2ncc(C(=O)NC)s2)ccc1OC | -13.2% |
| COc1ccc(NC(=O)CCC(C)C)c(N2CCN(C(C)=O)CC2)n1 | -13.6% |
| COC(=O)CCNC(=O)c1nnn(-c2ccc(F)cc2)c1C1CC1 | -10.2% |
| COc1ccc(N)c(N2CCN(C(C)=O)CC2)n1 | -11% |
| CNS(=O)(=O)c1cccc(C(C)NCc2cccc(O)c2)c1 (configuration not stated) | -11.9% |
| Cc1ccc(C(CNCc2ncc[nH]2)N2CCOCC2)s1 (configuration not stated) | -12.7% |

| SMILES | cytotoxicity at 70.5 h |
| --- | --- |
| Cc1ccc(C(CNCc2ccc(C#N)cc2)N2CCOCC2)s1 (configuration not stated) | -3.96% |
| CCC(=O)N1CCCN(c2cncc(-n3nc(C)cc3C)n2)CC1 | -4.7% |
| Cc1cc(C)n(-c2cncc(N3CCN(C(=O)C(C)C)CC3)n2)n1 | -4.92% |
| COCc1nc2cc(NCc3scnc3C)ccc2o1 | -5.1% |
| NC(=O)NC(=O)Cn1ccc2sccc2c1=O | -5.03% |
| COCc1nc2cc(NCc3ncc[nH]3)ccc2o1 | -3.38% |
| CNS(=O)(=O)c1cccc(C(C)NCc2ccc(C)o2)c1 (configuration not stated) | -2.97% |
| CCC(=O)N1CCCN(C(=O)C2SCCc3sccc32)CC1 (configuration not stated) | 3.13% |
| CN(CC(=O)Nc1cccnc1)CC1CCCN1c1cccnn1 (configuration not stated) | -7.79% |
| CNS(=O)(=O)c1cccc(C(C)NCc2ccccc2OC)c1 (configuration not stated) | -4.76% |
| Cc1cc(NC(=O)CN(C)CC2CCCN2c2cccnn2)n(C)n1 (configuration not stated) | -5.26% |
| CCCn1cc(CNCC(c2ccc(C)s2)N2CCOCC2)cn1 (configuration not stated) | 8.59% |
| Cc1ccc(C2CCCN2CC(=O)N(CCC#N)c2ccccc2)cc1 (configuration not stated) | -7.81% |
| Cc1cnn(C2CN(CC(O)COCc3ccc4c(c3)OCO4)C2)c1 (configuration not stated) | -0.637% |
| CCS(=O)(=O)CC(=O)N1CCCC1c1noc(C2CC2)n1 (configuration not stated) | -8.04% |
| COC(=O)C(C)Sc1nnnn1C1CCOCC1 (configuration not stated) | -5.79% |
| Cc1nc(C)c(CNCc2nnc3n2CCCC3C(F)(F)F)s1 (configuration not stated) | -8.57% |
| COc1ccc(C(=O)NC2CC2)c(OC)c1 | -11.5% |
| COc1ncccc1NC(=O)N1CCCC1c1cc(C)no1 (configuration not stated) | -16.3% |
| CCNC(=O)NC(=O)CN1CCC(c2c[nH]c3ccc(OC)cc23)CC1 | 24.1% |
| CNC(=O)NC(=O)CSC(C)c1ccccc1F (configuration not stated) | -15.4% |
| CCOC(=O)NC(=O)CSC(C)c1ccccc1F (configuration not stated) | -14.4% |
| COc1ccc2[nH]cc(C3CCN(CCC(N)=O)CC3)c2c1 | -11.2% |
| Cc1cnn(Cc2cc(F)ccc2F)c1NC(=O)C1CCOCC1 | 1.07% |
| CCNC(=O)Nc1c(C)cnn1Cc1cc(F)ccc1F | -11.6% |

| SMILES | cytotoxicity at 70.5 h |
| --- | --- |
| CNC(=O)CCNC(=O)c1cc(Br)c2c(c1)OCCO2 | -6.67% |
| CCn1cc(C#N)c(=O)c2cc(Br)ccc21 | -13.9% |
| CC(=O)NCCNC(=O)c1cc(Br)c2c(c1)OCCO2 | -11.6% |
| Cc1cnn(C2CN(CC(O)c3ccccc3)C2)c1 (configuration not stated) | 27.4% |
| Cc1ccc(N2CCCC(N(C)Cc3cc(C)on3)C2)nn1 (configuration not stated) | -5.56% |
| CCCNC(=O)Cn1cc(C#N)c(=O)c2cc(Br)ccc21 | -8.09% |
| CCCNC(=O)c1cc(Br)c2c(c1)OCCO2 | -9.42% |
| Cn1nnc(C2(NC(=O)c3ccccc3)CCCC2)n1 | -8.79% |
| CCCC(C)Sc1nnnn1C1CCOCC1 (configuration not stated) | -12.8% |
| Cc1cc(C2CCCN2C(=O)NCc2cccnc2)on1 (configuration not stated) | -7.94% |
| CC(C)OCCSc1nnnn1C1CCOCC1 | -8.16% |
| Cc1oc(-c2ccco2)nc1CC(=O)NCC(C)(C)N(C)C | -8.24% |
| Cc1cc(C2CCCN2C(=O)NCc2cccnc2N(C)C)on1 (configuration not stated) | 23.2% |
| O=C(COC1CCCC1)N1CCCC1c1noc(C2CC2)n1 (configuration not stated) | -9.93% |
| CC(Sc1nnnn1C1CCOCC1)C(F)(F)F (configuration not stated) | -7.71% |
| CC(C)C(=O)Nc1ccc(C(O)Cn2nc(-c3cccs3)oc2=O)cc1 (configuration not stated) | 28.2% |
| COc1cc(CNC(C)c2cccc(Cl)c2)cc(OC)c1OC (configuration not stated) | -9.01% |
| COc1cccc(C2CCCN2C(=O)NCCCn2cccn2)c1 (configuration not stated) | -6.25% |
| NC(=O)C1CCCN1Cc1cccc(NC(=O)c2cccs2)c1 (configuration not stated) | 2.36% |
| O=C(NCCCn1cccn1)N1CCCC1c1ccsc1 (configuration not stated) | -9.1% |
| CCN(C)C(=O)C1(c2ccc(F)cc2F)CCC1 | 4.95% |
| COC(=O)c1cnc(/C=C/c2ccc(C(=O)O)cc2)s1 | 0.0314% |
| CC(=O)Nc1ccc(/C=C/c2ncc(C(=O)O)s2)cc1 | -1.46% |
| CC(C)C(C)NC(=O)CN1CCSCC1 (configuration not stated) | -2.11% |
| CCC(CC)NC(=O)CN1CCSCC1 | 3.72% |

| SMILES | cytotoxicity at 70.5 h |
| --- | --- |
| CC(C(=O)N1CCc2ccccc21)N1CCc2cncnc2C1 (configuration not stated) | -3.31% |
| CCNC(=O)CNC(=O)c1ccn(S(=O)(=O)c2ccc(C)cc2)c1 | 1.83% |
| Cc1nnc(NCCc2nc3ccc(F)cc3n2C)c(C#N)c1C | 1.4% |
| COc1ccccc1CCNC(=O)CNC1CCc2nc(C)nn2C1 (configuration not stated) | -0.271% |
| COC(=O)NCC(=O)NCC1(c2c(F)cccc2F)CCCC1 | 1.47% |
| Cn1c(CCNc2nccnc2C#N)nc2ccc(F)cc21 | 2.09% |
| O=C(CCC1CCCCC1)NS(=O)(=O)CC1CC1 | 14.7% |
| Cc1nc2n(n1)CC(NCC(=O)NCCCOC(C)C)CC2 (configuration not stated) | -0.276% |
| Cc1cc(=O)n(C)cc1NC(=O)Cc1ccc(C(F)(F)F)cc1 | 0.135% |
| O=C(Cc1cnn(-c2ccccc2)n1)NC1CCOCC1 | -0.727% |
| Cc1nc(C)c(C(=O)NCc2nc3cccc(C)c3n2C)o1 | -0.751% |
| CCNc1ncc(C(=O)Nc2nnc(N3CCCCC3)[nH]2)s1 | -2.41% |
| CC(C)(O)CSCCNC(=O)c1cc(F)ccc1F | 12.9% |
| CC(C)(O)CSCCNC(=O)c1ccc(F)cc1Cl | -2.51% |
| CN(Cc1ccccc1NCc1cscn1)C(=O)c1cccs1 | -3.79% |
| CC(C(=O)N1CCOCC1)N1CCc2cncnc2C1 (configuration not stated) | -4.71% |
| CCN1CCN(C(=O)C(C)N2CCc3cncnc3C2)CC1 (configuration not stated) | -4.42% |
| Cc1cnc(CN(Cc2ccc(C#N)cc2F)C2CCN(C)C2)o1 (configuration not stated) | -8.53% |
| O=C1NCCCCC1NS(=O)(=O)N1CCCCC1 (configuration not stated) | -10.6% |
| Cc1cc(C)c2c(c1)C(NC(=O)CSCc1ccncc1)CCO2 (configuration not stated) | -7.37% |
| CN(Cc1ccc(C#N)cc1)Cn1nccc1-c1cccnc1 | -4% |
| COc1ccc(CNC(C)c2cccc(Br)c2)c(OC)c1OC (configuration not stated) | 17.6% |
